Data from ChEMBL document CHEMBL6096738, “Optimization of Single Relaxin B-Chain Peptide Leads to the Identification of R2R01, a Potent, Long-Acting RXFP1 Agonist for Cardiovascular and Renal Diseases” (J Med Chem, 2025).
Starred links: 1 amine or outer side, 2 acyl side, 3 side chain; linkers in the order of their positions; H or OH if unused. Non-standard residues stand in square brackets, D forms with d. Residues, ends and D or L forms follow the SMILES beside them. Groups on a side chain read outwards from the residue. ξ: configuration not given here. *: point of attachment. X2 = CCCCCCCCCCCCCCCC(=O)N[C@@H](CCC(=O)N[C@@H](CCC(=O)N[C@@H](CCC(=O)NCCCOCCOCCOCCCNC(=O)CCC(=O)NCCCOCCOCCOCCCNC(=O)CCC(=O)NCCCOCCOCCOCCCN*)C(=O)O)C(=O)O)C(=O)O; PEG12 = NCCOCCOCCOCCOCCOCCOCCOCCOCCOCCOCCOCCOCCC(=O)O; γGlu = O=C(O)[C@H](CCC(=O)[*:2])N[*:1]; ξγGlu = O=C(O)C(CCC(=O)[*:2])N[*:1]; Stearoyl = CCCCCCCCCCCCCCCCCC(=O)*; Palmitoyl = CCCCCCCCCCCCCCCC(=O)*; Suc = O=C(CCC(=O)[*:2])[*:1]; αMeK = C[C@](N)(CCCCN)C(=O)O; Nle = CCCC[C@H](N)C(=O)O; AEEA = NCCOCCOCC(=O)O; Aib = CC(C)(N)C(=O)O

Tests used:
[1] = target: T1, Relaxin receptor 1 (Homo sapiens) (UniProt Q9HBX9); assay: Agonist activity at human RXFP1 expressed in human OVCAR-5 cells assessed as intracellular cAMP accumulation by measuring maximal efficacy incubated for 30 mins by HTRF assay relative to control; assay type: functional, cell-based; settings: filed as agonist
T1 sequence (whole entry): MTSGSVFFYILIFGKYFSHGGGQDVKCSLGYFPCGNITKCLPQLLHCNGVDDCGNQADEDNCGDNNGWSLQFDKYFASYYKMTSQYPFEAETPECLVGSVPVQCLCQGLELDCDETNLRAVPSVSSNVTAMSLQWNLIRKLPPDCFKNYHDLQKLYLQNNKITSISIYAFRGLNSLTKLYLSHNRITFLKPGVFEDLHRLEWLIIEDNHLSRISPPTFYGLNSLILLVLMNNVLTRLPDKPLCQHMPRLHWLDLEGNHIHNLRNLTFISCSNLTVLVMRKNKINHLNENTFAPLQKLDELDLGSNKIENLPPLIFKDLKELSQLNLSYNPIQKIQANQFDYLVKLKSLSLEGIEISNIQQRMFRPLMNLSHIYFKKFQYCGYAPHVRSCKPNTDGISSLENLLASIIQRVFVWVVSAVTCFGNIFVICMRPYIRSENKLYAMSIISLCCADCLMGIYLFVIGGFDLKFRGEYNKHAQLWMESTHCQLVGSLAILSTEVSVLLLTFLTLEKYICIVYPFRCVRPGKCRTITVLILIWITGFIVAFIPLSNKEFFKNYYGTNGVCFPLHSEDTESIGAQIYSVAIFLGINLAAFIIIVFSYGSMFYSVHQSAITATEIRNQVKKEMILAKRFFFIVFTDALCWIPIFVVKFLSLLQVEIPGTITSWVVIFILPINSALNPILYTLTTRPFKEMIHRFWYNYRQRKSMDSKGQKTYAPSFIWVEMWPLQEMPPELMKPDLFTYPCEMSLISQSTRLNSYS

[2] = target: T1, Relaxin receptor 1 (Homo sapiens); assay: Agonist activity at human RXFP1 expressed in 2%HSA treated human OVCAR-5 cells assessed as intracellular cAMP accumulation by measuring maximal efficacy incubated for 30 mins with 2% HSA pretreated compound by HTRF assay relative to control; assay type: functional, cell-based; settings: filed as agonist
[3] = target: T2, Relaxin receptor 1 (Homo sapiens, UniProt Q9HBX9); assay: Agonist activity at human RXFP1 expressed in 2%HSA treated human OVCAR-5 cells assessed as intracellular cAMP accumulation incubated for 30 mins with 2% HSA pretreated compound by HTRF assay; assay type: functional, cell-based
T2 sequence (Q9HBX9 whole entry): T1 sequence (whole entry)

[4] = Half-life in male Sprague-Dawley rat at 1 mg/kg, iv measured after 198 hrs by LC-HRMS analysis; assay type: ADME, organism-based; settings: in vivo
[5] = target: T2, Relaxin receptor 1; assay: Agonist activity at human RXFP1 expressed in human OVCAR-5 cells assessed as intracellular cAMP accumulation incubated for 30 mins by HTRF assay; assay type: functional, cell-based

Row | SMILES | Emax [1] | Emax [2] | EC50 [3] | half-life [4] | EC50 [5]
1 | CCCCCCCCCCCCCCCC(=O)N[C@@H](CCC(=O)N[C@@H](CCC(=O)N[C@@H](CCC(=O)NCCCC[C@H](NC(=O)CCOCCOCCOCCOCCOCCOCCOCCOCCOCCOCCOCCOCCNC(=O)[C@H](CCCCNC(C)=O)NC(=O)[C@H](CCCCN)NC(=O)[C@H](CCCNC(=N)N)NC(=O)C(C)(C)NC(=O)[C@H](CO)NC(=O)[C@H](Cc1c[nH]c2ccccc12)NC(=O)[C@@H](NC(=O)[C@H](CO)NC(=O)[C@H](CCCC)NC(=O)CNC(=O)[C@H](CCC(=O)O)NC(=O)C(C)(C)NC(=O)C(C)(C)NC(=O)[C@@H](NC(=O)[C@H](CCCCNC(C)=O)NC(=O)C(C)(C)NC(=O)[C@H](CCCNC(=N)N)NC(=O)[C@@H](NC(=O)[C@H](CCCCN)NC(=O)[C@H](CCC(=O)O)NC(=O)[C@H](CCCNC(=N)N)NC(=O)CNC(=O)[C@H](CCC(=O)O)NC(=O)[C@H](CC(C)C)NC(C)=O)C(C)C)[C@@H](C)CC)[C@@H](C)O)C(N)=O)C(=O)O)C(=O)O)C(=O)O (Ac-LEGREKVR[Aib]K(Ac)I[Aib][Aib]EG[Nle]STWS[Aib]RKK(Ac)[PEG12]K([γGlu-γGlu-γGlu-Palmitoyl])-NH2) | 86% | 82% | 46 nM | 6.9 h | –
2 | CCCCCCCCCCCCCCCC(=O)N[C@@H](CCC(=O)N[C@@H](CCC(=O)N[C@@H](CCC(=O)NCCCC[C@H](NC(=O)COCCOCCNC(=O)COCCOCCNC(=O)COCCOCCNC(=O)[C@H](CCCCNC(C)=O)NC(=O)[C@H](CCCCN)NC(=O)[C@H](CCCNC(=N)N)NC(=O)C(C)(C)NC(=O)[C@H](CO)NC(=O)[C@H](Cc1c[nH]c2ccccc12)NC(=O)[C@@H](NC(=O)[C@H](CO)NC(=O)[C@H](CCCC)NC(=O)CNC(=O)[C@H](CCC(=O)O)NC(=O)C(C)(C)NC(=O)C(C)(C)NC(=O)[C@@H](NC(=O)[C@H](CCCCNC(C)=O)NC(=O)[C@H](C)NC(=O)[C@H](CCCNC(=N)N)NC(=O)[C@@H](NC(=O)[C@H](CCCCN)NC(=O)[C@H](CCC(=O)O)NC(=O)[C@H](CCCNC(=N)N)NC(=O)CNC(=O)[C@H](CCC(=O)O)NC(=O)[C@H](CC(C)C)NC(C)=O)C(C)C)[C@@H](C)CC)[C@@H](C)O)C(N)=O)C(=O)O)C(=O)O)C(=O)O (Ac-LEGREKVRAK(Ac)I[Aib][Aib]EG[Nle]STWS[Aib]RKK(Ac)[AEEA][AEEA][AEEA]K([γGlu-γGlu-γGlu-Palmitoyl])-NH2) | 91% | 80% | 77 nM | – | 1.6 nM
3 | CCCCCCCCCCCCCCCC(=O)N[C@@H](CCC(=O)N[C@@H](CCC(=O)NC(CCC(=O)NCCOCCOCC(=O)NCCOCCOCC(=O)NCCOCCOCC(=O)NCCCC[C@H](NC(=O)[C@H](C)NC(=O)[C@H](CCCNC(=N)N)NC(=O)[C@@H](NC(=O)[C@H](CCCCN)NC(=O)[C@H](CCC(=O)O)NC(=O)[C@H](CCCNC(=N)N)NC(=O)CNC(=O)[C@H](CCC(=O)O)NC(=O)[C@H](CC(C)C)NC(C)=O)C(C)C)C(=O)N[C@H](C(=O)NC(C)(C)C(=O)NC(C)(C)C(=O)N[C@@H](CCC(=O)O)C(=O)NCC(=O)N[C@@H](CCCC)C(=O)N[C@@H](CO)C(=O)N[C@H](C(=O)N[C@@H](Cc1c[nH]c2ccccc12)C(=O)N[C@@H](CO)C(=O)NC(C)(C)C(=O)N[C@@H](CCCNC(=N)N)C(=O)N[C@@H](CCCCN)C(=O)N[C@@H](CCCCNC(C)=O)C(N)=O)[C@@H](C)O)[C@@H](C)CC)C(=O)O)C(=O)O)C(=O)O (stereo not given in full) (Ac-LEGREKVRAK([AEEA-AEEA-AEEA-ξγGlu-γGlu-γGlu-Palmitoyl])I[Aib][Aib]EG[Nle]STWS[Aib]RKK(Ac)-NH2) | 78% | – | > 2000 nM | – | 14.5 nM

The remaining lines, values ahead:

Row | Emax [1] | Emax [2] | EC50 [3] | half-life [4] | EC50 [5] | SMILES
4 | 88% | 82% | 47.2 nM | – | – | CCCCCCCCCCCCCCCCCC(=O)N[C@@H](CCC(=O)N[C@@H](CCC(=O)N[C@@H](CCC(=O)NCCOCCOCC(=O)NCCOCCOCC(=O)NCCOCCOCC(=O)NCCCC[C@H](NC(=O)[C@H](CCCCNC(C)=O)NC(=O)[C@H](CCCCN)NC(=O)[C@H](CCCNC(=N)N)NC(=O)C(C)(C)NC(=O)[C@H](CO)NC(=O)[C@H](Cc1c[nH]c2ccccc12)NC(=O)[C@@H](NC(=O)[C@H](CO)NC(=O)[C@H](CCC(N)=O)NC(=O)CNC(=O)[C@H](CCC(=O)O)NC(=O)C(C)(C)NC(=O)C(C)(C)NC(=O)[C@@H](NC(=O)[C@H](CCCCNC(C)=O)NC(=O)[C@H](C)NC(=O)[C@H](CCCNC(=N)N)NC(=O)[C@@H](NC(=O)[C@H](CCCCN)NC(=O)[C@H](CCC(=O)O)NC(=O)[C@H](CCCNC(=N)N)NC(=O)CNC(=O)[C@H](CCC(=O)O)NC(=O)[C@H](CC(C)C)NC(C)=O)C(C)C)[C@@H](C)CC)[C@@H](C)O)C(N)=O)C(=O)O)C(=O)O)C(=O)O (Ac-LEGREKVRAK(Ac)I[Aib][Aib]EGQSTWS[Aib]RKK(Ac)K([AEEA-AEEA-AEEA-γGlu-γGlu-γGlu-Stearoyl])-NH2)
5 | 95% | 94% | 19.4 nM | 11.5 h | 0.06 nM | CCCCCCCCCCCCCCCC(=O)N[C@@H](CCC(=O)N[C@@H](CCC(=O)N[C@@H](CCC(=O)NCCCOCCOCCOCCCNC(=O)CCC(=O)NCCCOCCOCCOCCCNC(=O)CCC(=O)NCCCOCCOCCOCCCNC(=O)CCC(=O)NCCCC[C@H](NC(=O)[C@H](C)NC(=O)[C@H](CCCNC(=N)N)NC(=O)[C@@H](NC(=O)[C@H](CCCCN)NC(=O)[C@H](CCC(=O)O)NC(=O)[C@H](CCCNC(=N)N)NC(=O)CNC(=O)[C@H](CCC(=O)O)NC(=O)[C@H](CC(C)C)NC(C)=O)C(C)C)C(=O)N[C@H](C(=O)NC(C)(C)C(=O)NC(C)(C)C(=O)N[C@@H](CCC(=O)O)C(=O)NCC(=O)N[C@@H](CCC(N)=O)C(=O)N[C@@H](CO)C(=O)N[C@H](C(=O)N[C@@H](Cc1ccccc1)C(=O)N[C@@H](CO)C(=O)N[C@@](C)(CCCCN)C(=O)N[C@@H](CCCNC(=N)N)C(=O)N[C@@H](C)C(=O)N[C@@H](CCCCNC(C)=O)C(N)=O)[C@@H](C)O)[C@@H](C)CC)C(=O)O)C(=O)O)C(=O)O (Ac-LEGREKVRAK([Suc-X2])I[Aib][Aib]EGQSTFS[αMeK]RAK(Ac)-NH2)
6 | 88% | – | > 2000 nM | – | – | CCCCCCCCCCCCCCCC(=O)N[C@@H](CCC(=O)N[C@@H](CCC(=O)N[C@@H](CCC(=O)NCCOCCOCC(=O)NCCOCCOCC(=O)NCCOCCOCC(=O)NCCCC[C@H](NC(=O)CNC(=O)[C@H](CCC(=O)O)NC(=O)C(C)(C)NC(=O)C(C)(C)NC(=O)[C@@H](NC(=O)[C@H](CCCCNC(C)=O)NC(=O)[C@H](C)NC(=O)[C@H](CCCNC(=N)N)NC(=O)[C@@H](NC(=O)[C@H](CCCCN)NC(=O)[C@H](CCC(=O)O)NC(=O)[C@H](CCCNC(=N)N)NC(=O)CNC(=O)[C@H](CCC(=O)O)NC(=O)[C@H](CC(C)C)NC(C)=O)C(C)C)[C@@H](C)CC)C(=O)N[C@@H](CO)C(=O)N[C@H](C(=O)N[C@@H](Cc1c[nH]c2ccccc12)C(=O)N[C@@H](CO)C(=O)NC(C)(C)C(=O)N[C@@H](CCCNC(=N)N)C(=O)N[C@@H](CCCCN)C(=O)N[C@@H](CCCCNC(C)=O)C(N)=O)[C@@H](C)O)C(=O)O)C(=O)O)C(=O)O (Ac-LEGREKVRAK(Ac)I[Aib][Aib]EGK([AEEA-AEEA-AEEA-γGlu-γGlu-γGlu-Palmitoyl])STWS[Aib]RKK(Ac)-NH2)
7 | 91% | 89% | 31.7 nM | – | 0.43 nM | CCCCCCCCCCCCCCCC(=O)N[C@@H](CCC(=O)N[C@@H](CCC(=O)N[C@@H](CCC(=O)NCCCOCCOCCOCCCNC(=O)CCC(=O)NCCCOCCOCCOCCCNC(=O)CCC(=O)NCCCOCCOCCOCCCNC(=O)CCC(=O)NCCCC[C@H](NC(=O)[C@@H](NC(=O)[C@H](CCCCNC(C)=O)NC(=O)[C@H](C)NC(=O)[C@H](CCCNC(=N)N)NC(=O)[C@@H](NC(=O)[C@H](CCCCN)NC(=O)[C@H](CCC(=O)O)NC(=O)[C@H](CCCNC(=N)N)NC(=O)CNC(=O)[C@H](CCC(=O)O)NC(=O)[C@H](CC(C)C)NC(C)=O)C(C)C)[C@@H](C)CC)C(=O)NC(C)(C)C(=O)N[C@@H](CCC(=O)O)C(=O)NCC(=O)N[C@@H](CCCC)C(=O)N[C@@H](CO)C(=O)N[C@H](C(=O)N[C@@H](Cc1ccccc1)C(=O)N[C@@H](CO)C(=O)N[C@@](C)(CCCCN)C(=O)N[C@@H](CCCNC(=N)N)C(=O)N[C@@H](C)C(=O)N[C@@H](CCCCNC(C)=O)C(N)=O)[C@@H](C)O)C(=O)O)C(=O)O)C(=O)O (Ac-LEGREKVRAK(Ac)IK([Suc-X2])[Aib]EG[Nle]STFS[αMeK]RAK(Ac)-NH2)
